Measured values taken from US9096581B2, “Fluoroethyl thiamine or salts thereof and application thereof in preparation of anticoccidial drugs” (GUANGZHOU ORIGMOL FEED-ADDITIVE CO., LTD, priority 2012, dated 2015).
Entries after “also recorded” stand apart in the source; their conditions may differ. Structures can show the parent of a compound that is named as a salt.

Columns and labels:
[1] = tested on: Eimeria tenella JM strains (amprolium-resistant); test: Effect on amprolium-resistant coccidium strain in chickens (Embodiment 4); format: in vivo; settings: 125 ppm in feed; for number of oocysts in cecum / lesion value / the average weight gain: 7th day; for lesion value: cecum, scale 0-40; for survival rate / the average weight gain / bloody feces scoring: chickens; for bloody feces scoring: 5 days after infecting, score 0-4; for oocyst value: converted per Table 2; for relative weight gain rate: vs non-infected non-drug control
Description: (§1) 1-day-old Lingnan yellow chickens, purchased from Poultry Research Unit, Bureau of Animal Husbandry, Guangdong Academy of Agricultural Sciences, bred under coccidium-free environment, and subjected to grouping and experiment after no coccidium oocyst is found in feces through microscopic examination when the chickens are 14 days old.
Eimeria tenella JM strains, separated and purified from a chicken farm in Jiangmen, Guangdong, which are tested and identified to be amprolium-resistant coccidium strains. Breeding and amplifying in chickens before the experiment, collecting fresh eggs, sporulating, and preserving at 4° C. for later use.
(§2) Weighing the 14-day-old experiment chickens one by one, rejecting emaciated chickens or overweighted chickens, selecting healthy chickens of which the individual body weight difference is within 20 g, and dividing into 4 groups with 30 chickens in each group. Groups 1 and 2 are respectively a non-drug-applied and non-coccidium-killed control group and a coccidium-infected and non-drug-applied control group, and Groups 3 and 4 are respectively added with fluoroethyl thiamine hydrochloride and amprolium. Feeding with feed containing different drugs on the day of experiment grouping according to Table 6, enabling the chickens to freely take in the feed, and feeding the chickens until the experiment ends.
Except the non-coccidium-infected and non-drug-applied control group, giving each experiment chicken in each experiment group with 1.0×10^5 eimeria tenella sporulated oocysts via the crop on the next day of the grouping day. During experiment, observing and recording the spirit, appetite, bloody feces situation, death count and the like of the chickens every day. Performing bloody feces scoring on the chickens in each group 5 days after infecting. On the 7th day, respectively weighing all the chickens in each group, then autopsying them, observing cecum lesions and counting the oocysts in the cecum.
The evaluation standard is the same with Embodiment 2.

[2] = tested on: Eimeria necatrix GD strains; test: Anticoccidial effect on Eimeria necatrix in chickens (Embodiment 7); format: in vivo; settings: 125 ppm in feed; for average weight gain / number of oocysts in feces: 7th day after infecting; for survival rate: chickens; for relative decrement rate of oocysts: vs infected non-drug control; for relative weight gain rate: vs non-infected non-drug control
From the text: as §1
Eimeria necatrix GD strains, having no resistance to various anticoccidial drugs. Breeding and amplifying in chickens before the experiment, collecting fresh oocysts, sporulating, and preserving at 4° C. for later use.
as §2, with “and dividing to 4 groups” for “and dividing into 4 groups”, “4 are added with” for “4 are respectively added with”, “thiamine hydrochloride or amprolium according to Table 12. Feeding with” for “thiamine hydrochloride and amprolium. Feeding with”, “of experiment grouping, enabling the” for “of experiment grouping according to Table 6, enabling the”
Except the non-coccidium-infected and non-drug-applied control group, giving each experiment chicken in each experiment group with 1×10^5 eimeria necatrix sporulated oocysts via the crop on the next day of the grouping day. During experiment, observing and recording the spirit, appetite, bloody feces situation, death count and the like of the chickens every day. On the 7th day after infecting, respectively weighing each group, calculating the relative weight gain rate, simultaneously collecting feces samples, and counting the number of oocysts per gram of feces.
The anticoccidial effect evaluation is the same with Embodiment 5.

Row | SMILES | anticoccidial index (ACI) [1] | effect on amprolium-resistant strain, in words [1] | number of oocysts in cecum [1] | lesion value [1] | survival rate [1] | the average weight gain [1] | bloody feces scoring [1] | oocyst value [1] | relative weight gain rate [1] | average weight gain [2] | number of oocysts in feces [2] | survival rate [2] | inhibition of eimeria necatrix, in words ([2]; hydrochloride) | relative decrement rate of oocysts [2] | relative weight gain rate [2]
1 | CCc1ncc(C[n+]2csc(CCF)c2C)c(N)n1 [fluoroethyl thiamine hydrochloride, 3-[(4-amino-2-ethyl-5-pyrimidyl)-methylene]-5-(2-fluoroethyl)-4-methyl thiazole chloride hydrochloride] | 196.8 | can protect the experiment chickens from being infected by the strains | 0 ×10^6/chicken | 0 | 100% | 182.7 g/chicken | 0 | 0 | 96.8% | 172.5 g | 1900 g⁻¹ | 100% | can effectively control infection of the eimeria necatrix; also recorded: superior to amprolium in eimeria necatrix inhibition | 85.9% | 92.9%
2 | CCCc1ncc(C[n+]2ccccc2C)c(N)n1 [amprolium, Amprolium, reference compound] | 93.5 | eimeria tenella JM strain has resistance to amprolium | 2.878 ×10^6/chicken | 28.4 | 60% | 135.6 g/chicken | 4 | 10 | 71.9% | 159.9 g | 3600 g⁻¹ | 100% |  | 73.3% | 86.2%
